Laboratory results published in patent US5804577A, “Cephalosporin derivatives” (Hoffmann-La Roche Inc., priority 1995, dated 1998).
In brackets after ≈: the same amount, converted by molar mass. Counter-ions that a name gives are not always drawn. Like-named read-outs stand apart in the source and are kept apart here.

Columns and labels:
Experiment in all cases: MIC by agar dilution method in Mueller Hinton agar
Format in all cases: cell-based
E. coli 25922 = conditions: Escherichia coli, 25922
Protocol: (§1) In vitro activity was determined by minimum inhibitory concentration in a microorganism spectrum by the agar dilution method in Mueller Hinton agar.

K. pneumoniae 418 = conditions: Klebsiella pneumoniae, 418
Protocol: as §1

C. freundii 43 = conditions: Citrobacter freundii; C. freundii 43; read-out: MIC
Protocol: as §1

X. maltophilia 1AC739 = conditions: Stenotrophomonas maltophilia
Protocol: as §1

S. viridans group 016 = conditions: Streptococcus viridans, GROUP016
Protocol: as §1

P. vulgaris 1028 = conditions: Proteus vulgaris
Protocol: as §1

S. aureus 734 MRSA = conditions: Staphylococcus aureus
Protocol: as §1

Acinetobacter sp. 51-156 = conditions: SP.51156
Protocol: as §1

E. faecalis 6 = conditions: Enterococcus faecalis
Protocol: as §1

P. aeruginosa 27853 = conditions: Pseudomonas aeruginosa
Protocol: as §1

E. cloacae 908R = conditions: Enterobacter cloacae
Protocol: as §1

E. cloacae 908SSi = conditions: Enterobacter cloacae
Protocol: as §1

S. agalactiae QK44 = conditions: Streptococcus agalactiae
Protocol: as §1

L. monocytogenes BK23 = conditions: Listeria monocytogenes
Protocol: as §1

C. freundii 902 = conditions: Citrobacter freundii
Protocol: as §1

S. marscescens 69438 = tested on: S. marscescens 69438
Protocol: as §1

S. aureus 6538 = conditions: Staphylococcus aureus
Protocol: as §1

B. fragilis ATCC25285 = conditions: Bacteroides fragilis, ATCC25285
Protocol: as §1

C. difficile ZH1 = conditions: Clostridioides difficile; C. difficile ZH1; read-out: MIC
Protocol: as §1

M. catarrhalis RA21 = conditions: Moraxella catarrhalis
Protocol: as §1

M. morganii 6H-137 = conditions: Morganella morganii, 6H137
Protocol: as §1

P. mirabilis 2117 = conditions: Proteus mirabilis; P. mirabilis 2117; read-out: MIC
Protocol: as §1

[1] = X. maltophilia 1AC739, read-out: MIC
[2] = Acinetobacter sp. 51-156, read-out: MIC
[3] = P. vulgaris 1028, read-out: MIC
[4] = P. aeruginosa 27853, read-out: MIC

Row | Structure (SMILES) | MIC (E. coli 25922) [µg/mL] | MIC (K. pneumoniae 418) [µg/mL] | MIC (C. freundii 43) [µg/mL] | MIC (X. maltophilia 1AC739; [1]) [µg/mL] | MIC (S. viridans group 016) [µg/mL] | MIC (P. vulgaris 1028; 1028) [µg/mL] | MIC (S. aureus 734 MRSA; MRSA) [µg/mL] | MIC (Acinetobacter sp. 51-156; [2]) [µg/mL] | MIC (E. faecalis 6; 6) [µg/mL] | MIC (P. aeruginosa 27853; 27853) [µg/mL] | MIC (E. cloacae 908R; E. cloacae 908R, read-out: MIC) [µg/mL] | MIC (E. cloacae 908SSi; 908SSI) [µg/mL] | MIC (S. agalactiae QK44) [µg/mL] | MIC (L. monocytogenes BK23; BK23) [µg/mL] | MIC (C. freundii 902; 902) [µg/mL] | MIC (S. marscescens 69438) [µg/mL] | MIC (S. aureus 6538; 6538) [µg/mL] | MIC (X. maltophilia 1AC739; 1AC739) [µg/mL] | MIC (P. vulgaris 1028; [3]) [µg/mL] | MIC (Acinetobacter sp. 51-156; Acinetobacter) [µg/mL] | other results
1 | Nc1nc(/C(=N/O)C(=O)N[C@@H]2C(=O)N3C(C(=O)O)=C(/C=C4\CCN(c5ccc(O)c(F)c5)C4=O)CS[C@H]23)cs1 [C, (6R,7R)-7-[(Z)-2-(2-Amino-thiazol-4-yl)-2-(hydroxyimino-acetylamino]-3-[(E)-1-(3-fluoro-4-hydroxy-phenyl)-2-oxo-pyrrolidin-3-ylidenemethyl]-8-oxo-5-thia-1-azabicyclo[4.2.0]oct-2-ene-2-carboxylic acid trifluoroacetate] | 0.12 | 0.12 | 4 | > 32 | 0.12 | 8 | 4 | 32 | 1 | 4 | 32 | 0.5 | 0.06 | 1 | 0.12 | 1 | 0.5 | – | – | – | –
2 | Nc1nc(/C(=N/O)C(=O)N[C@@H]2C(=O)N3C(C(=O)O)=C(/C=C4\CCN(Cc5cccc(O)c5)C4=O)CS[C@H]23)cs1 [E, (6R,7R)-7-[(Z)-2-(2-Amino-thiazol-4-yl)-2-(hydroxyimino-acetylamino]-3-[(E)-1-(3-hydroxybenzyl)-2-oxo-pyrrolidin-3-ylidenemethyl]-8-oxo-5-thia-1-azabicyclo[4.2.0]oct-2-ene-2-carboxylic acid trifluoroacetate] | – | 0.25 | 4 | – | 0.5 | – | – | – | 0.5 | 8 | 8 | 0.5 | 0.12 | 2 | 0.25 | 0.5 | – | > 32 | 16 | 32 | MIC (B. fragilis ATCC25285): 8 µg/mL; MIC (S. aureus 734 MRSA; S. aureus 734 MRSA, read-out: MIC): 16 µg/mL; MIC (C. difficile ZH1): 4 µg/mL; MIC (M. catarrhalis RA21; RA21): 2 µg/mL; MIC (S. aureus 6538; S. aureus 6538, read-out: MIC): 0.5 µg/mL
3 | Nc1nc(/C(=N/O)C(=O)N[C@@H]2C(=O)N3C(C(=O)O)=C(/C=C4\CCN(c5nncs5)C4=O)CS[C@H]23)cs1 [F, (6R,7R)-7-[(Z)-2-(2-Amino-thiazol-4-yl)-2-hydroxyimino-acetylamino]-8-oxo-3-[(E)-2-oxo-1-(1,3,4-thiadiazol-2-yl)-pyrrolidin-3-ylidenemethyl]-5-thia-1-aza-bicyclo[4.2.0]oct-2-ene-2-carboxylic acid trifluoracetate (1:1)] | 0.12 (≈ 0.219 µM) | 0.25 (≈ 0.456 µM) | 8 (≈ 14.6 µM) | – | 0.5 (≈ 0.911 µM) | > 32 | 16 (≈ 29.2 µM) | – | 1 (≈ 1.82 µM) | – | – | 1 (≈ 1.82 µM) | 0.25 (≈ 0.456 µM) | 4 (≈ 7.29 µM) | 0.12 (≈ 0.219 µM) | 32 (≈ 58.3 µM) | 1 (≈ 1.82 µM) | > 32 | – | > 32 | MIC (M. morganii 6H-137): 0.5 µg/mL (≈ 0.911 µM); MIC (P. mirabilis 2117): 0.25 µg/mL (≈ 0.456 µM); MIC (P. aeruginosa 27853; [4]): > 32 µg/mL; MIC (E. cloacae 908R; 908R): > 32 µg/mL; MIC (M. catarrhalis RA21; RA21): > 16 µg/mL
4 | CO/N=C(\C(=O)N[C@@H]1C(=O)N2C(C(=O)O)=C(CSc3nc(=O)c(=O)[nH]n3C)CS[C@H]12)c1csc(N)n1 [II, reference compound] | – | – | 32 (≈ 57.7 µM) | > 32 | – | – | > 32 | 32 (≈ 57.7 µM) | – | – | – | – | – | – | – | – | 4 (≈ 7.21 µM) | – | 0.12 (≈ 0.216 µM) | – | MIC (S. viridans group 016; S. viridans group 016, read-out: MIC): 0.25 µg/mL (≈ 0.451 µM); MIC (E. faecalis 6; E. faecalis 6, read-out: MIC): > 32 µg/mL; MIC (P. aeruginosa 27853; [4]): 16 µg/mL (≈ 28.9 µM); MIC (E. cloacae 908R; 908R): > 32 µg/mL; MIC (M. catarrhalis RA21; M. catarrhalis RA21, read-out: MIC): 1 µg/mL (≈ 1.8 µM); MIC (E. cloacae 908SSi; E. cloacae 908SSi, read-out: MIC): 0.25 µg/mL (≈ 0.451 µM); MIC (L. monocytogenes BK23; L. monocytogenes BK23, read-out: MIC): > 16 µg/mL; MIC (C. freundii 902; C. freundii 902, read-out: MIC): 0.25 µg/mL (≈ 0.451 µM); MIC (S. marscescens 69438; S. marscescens 69438, read-out: MIC): 0.25 µg/mL (≈ 0.451 µM)
